In article PMC6773804, “Mapping of a Regulatory Site of the Escherichia coli ADP-Glucose Pyrophosphorylase” (Frontiers in Molecular Biosciences, 2019):
Like-named read-outs stand apart in the source and are kept apart here.

Assays:
[1] = biological target: T1, E. coli ADP-glucose pyrophosphorylase (ADP-Glc PPase) (Escherichia coli, UniProt P0A6V1, R386A); assay: ADP-glucose synthesis, colorimetric phosphate detection after pyrophosphatase; format: biochemical
T1 construct: gene glgC
T1 sequence (P0A6V1 1-431 R386A): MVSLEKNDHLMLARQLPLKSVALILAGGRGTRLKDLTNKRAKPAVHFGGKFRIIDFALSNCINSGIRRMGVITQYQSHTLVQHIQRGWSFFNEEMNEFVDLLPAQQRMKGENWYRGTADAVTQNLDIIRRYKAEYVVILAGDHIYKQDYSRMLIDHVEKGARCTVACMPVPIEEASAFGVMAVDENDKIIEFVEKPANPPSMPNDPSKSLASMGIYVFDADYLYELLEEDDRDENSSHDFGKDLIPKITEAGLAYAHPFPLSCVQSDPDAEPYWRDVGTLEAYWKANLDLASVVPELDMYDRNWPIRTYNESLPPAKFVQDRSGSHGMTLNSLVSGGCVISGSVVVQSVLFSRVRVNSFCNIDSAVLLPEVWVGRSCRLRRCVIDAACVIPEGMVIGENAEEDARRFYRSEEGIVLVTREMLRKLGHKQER
Source text: (§1) ADP-glucose synthesis, colorimetric phosphate detection after pyrophosphatase on E. coli ADP-glucose pyrophosphorylase (ADP-Glc PPase)

[2] = biological target: T2, E. coli ADP-glucose pyrophosphorylase (ADP-Glc PPase) (Escherichia coli, UniProt P0A6V1, R419A); assay: as above; format: biochemical
T2 construct: gene glgC
T2 sequence (P0A6V1 1-431 R419A): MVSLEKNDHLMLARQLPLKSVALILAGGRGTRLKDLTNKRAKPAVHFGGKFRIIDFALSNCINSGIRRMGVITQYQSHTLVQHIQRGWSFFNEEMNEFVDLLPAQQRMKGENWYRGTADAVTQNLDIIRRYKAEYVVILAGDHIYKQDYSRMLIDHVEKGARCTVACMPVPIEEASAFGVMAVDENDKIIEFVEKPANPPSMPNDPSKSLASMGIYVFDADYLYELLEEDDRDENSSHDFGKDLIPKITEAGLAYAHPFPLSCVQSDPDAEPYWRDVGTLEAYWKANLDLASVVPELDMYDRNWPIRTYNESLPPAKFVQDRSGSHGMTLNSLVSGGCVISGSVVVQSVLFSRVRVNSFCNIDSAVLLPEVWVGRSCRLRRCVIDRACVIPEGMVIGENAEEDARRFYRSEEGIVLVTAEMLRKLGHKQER
Source text: as §1

[3] = biological target: T3, E. coli ADP-glucose pyrophosphorylase (ADP-Glc PPase) (Escherichia coli, UniProt P0A6V1, R423A); assay: as above; format: biochemical
T3 construct: gene glgC
T3 sequence (P0A6V1 1-431 R423A): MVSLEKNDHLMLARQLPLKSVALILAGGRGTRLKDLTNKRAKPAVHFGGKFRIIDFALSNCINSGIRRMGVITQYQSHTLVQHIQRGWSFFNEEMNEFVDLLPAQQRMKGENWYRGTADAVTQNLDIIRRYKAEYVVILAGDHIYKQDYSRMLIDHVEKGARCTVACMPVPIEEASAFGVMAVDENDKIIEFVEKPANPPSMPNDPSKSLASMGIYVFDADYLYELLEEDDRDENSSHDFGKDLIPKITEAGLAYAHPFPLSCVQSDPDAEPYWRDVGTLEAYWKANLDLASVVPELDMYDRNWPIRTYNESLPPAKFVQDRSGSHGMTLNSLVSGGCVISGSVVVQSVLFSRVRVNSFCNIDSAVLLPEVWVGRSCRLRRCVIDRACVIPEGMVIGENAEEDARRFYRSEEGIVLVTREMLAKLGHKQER
Source text: as §1

[4] = biological target: T4, E. coli ADP-glucose pyrophosphorylase (ADP-Glc PPase) (Escherichia coli, UniProt P0A6V1); assay: as above; format: biochemical
T4 construct: gene glgC
T4 sequence (P0A6V1 1-431): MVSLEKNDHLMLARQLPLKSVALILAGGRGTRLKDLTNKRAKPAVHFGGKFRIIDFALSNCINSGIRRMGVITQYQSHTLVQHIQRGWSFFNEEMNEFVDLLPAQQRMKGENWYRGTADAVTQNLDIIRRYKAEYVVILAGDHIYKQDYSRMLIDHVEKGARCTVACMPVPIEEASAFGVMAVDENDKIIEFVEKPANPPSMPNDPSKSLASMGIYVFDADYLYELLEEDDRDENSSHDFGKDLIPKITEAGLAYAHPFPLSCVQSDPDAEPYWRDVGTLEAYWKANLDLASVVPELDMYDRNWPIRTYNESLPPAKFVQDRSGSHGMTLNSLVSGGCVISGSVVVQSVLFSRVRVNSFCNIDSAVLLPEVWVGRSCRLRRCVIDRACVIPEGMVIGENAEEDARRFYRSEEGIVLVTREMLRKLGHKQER
Source text: as §1

[5] = biological target: T5, E. coli ADP-glucose pyrophosphorylase (ADP-Glc PPase) (Escherichia coli, UniProt P0A6V1, R353A); assay: as above; format: biochemical
T5 construct: gene glgC
T5 sequence (P0A6V1 1-431 R353A): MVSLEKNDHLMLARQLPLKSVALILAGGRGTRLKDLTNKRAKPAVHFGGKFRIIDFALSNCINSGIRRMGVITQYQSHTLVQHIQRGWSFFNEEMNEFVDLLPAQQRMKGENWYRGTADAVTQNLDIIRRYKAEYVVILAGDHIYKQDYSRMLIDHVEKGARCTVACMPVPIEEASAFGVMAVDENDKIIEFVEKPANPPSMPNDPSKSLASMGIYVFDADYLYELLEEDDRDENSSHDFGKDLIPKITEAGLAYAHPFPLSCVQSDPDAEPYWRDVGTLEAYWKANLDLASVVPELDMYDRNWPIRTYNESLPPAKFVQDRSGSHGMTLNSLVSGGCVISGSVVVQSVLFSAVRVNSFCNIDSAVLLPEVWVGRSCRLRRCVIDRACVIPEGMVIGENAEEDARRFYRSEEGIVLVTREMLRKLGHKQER
Source text: as §1

[6] = biological target: T6, E. coli ADP-glucose pyrophosphorylase (ADP-Glc PPase) (Escherichia coli, UniProt P0A6V1, R130A); assay: as above; format: biochemical
T6 construct: gene glgC
T6 sequence (P0A6V1 1-431 R130A): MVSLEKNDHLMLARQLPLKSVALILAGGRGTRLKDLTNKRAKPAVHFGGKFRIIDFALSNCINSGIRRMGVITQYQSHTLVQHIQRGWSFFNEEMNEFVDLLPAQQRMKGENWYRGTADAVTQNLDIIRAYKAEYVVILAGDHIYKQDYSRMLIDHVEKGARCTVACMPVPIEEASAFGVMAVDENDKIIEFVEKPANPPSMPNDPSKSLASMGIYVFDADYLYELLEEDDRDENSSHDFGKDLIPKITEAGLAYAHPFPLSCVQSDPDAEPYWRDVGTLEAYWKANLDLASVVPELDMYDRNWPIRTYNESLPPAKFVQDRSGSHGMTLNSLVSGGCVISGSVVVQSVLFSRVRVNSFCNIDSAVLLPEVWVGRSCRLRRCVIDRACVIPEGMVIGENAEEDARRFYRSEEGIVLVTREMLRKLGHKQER
Source text: as §1

[7] = biological target: T4, E. coli ADP-glucose pyrophosphorylase (ADP-Glc PPase); assay: thermal shift assay, SYPRO Orange; format: binding; conditions: read-out: dTm at 1 mM
[8] = biological target: T7, E. coli ADP-glucose pyrophosphorylase (ADP-Glc PPase) (Escherichia coli, UniProt P0A6V1, R40A); assay: ADP-glucose synthesis, colorimetric phosphate detection after pyrophosphatase; format: biochemical; conditions: read-out: PLP / A0.5 /
T7 construct: gene glgC
T7 sequence (P0A6V1 1-431 R40A): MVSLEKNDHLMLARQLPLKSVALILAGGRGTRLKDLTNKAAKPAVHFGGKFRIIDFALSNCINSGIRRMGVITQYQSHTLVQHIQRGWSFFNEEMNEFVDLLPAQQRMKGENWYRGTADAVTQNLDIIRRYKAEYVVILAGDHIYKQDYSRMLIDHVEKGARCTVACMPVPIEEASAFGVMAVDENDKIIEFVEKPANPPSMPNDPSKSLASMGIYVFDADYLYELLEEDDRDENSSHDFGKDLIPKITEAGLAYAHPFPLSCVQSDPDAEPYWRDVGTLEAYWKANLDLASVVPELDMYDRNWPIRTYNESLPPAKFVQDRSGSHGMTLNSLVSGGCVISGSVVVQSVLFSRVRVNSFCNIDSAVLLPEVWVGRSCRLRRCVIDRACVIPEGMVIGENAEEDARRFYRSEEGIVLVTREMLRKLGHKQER
Source text: as §1

[9] = biological target: T8, E. coli ADP-glucose pyrophosphorylase (ADP-Glc PPase) (Escherichia coli, UniProt P0A6V1, R52K); assay: as above; format: biochemical; conditions: read-out: PLP / A0.5 /
T8 construct: gene glgC
T8 sequence (P0A6V1 1-431 R52K): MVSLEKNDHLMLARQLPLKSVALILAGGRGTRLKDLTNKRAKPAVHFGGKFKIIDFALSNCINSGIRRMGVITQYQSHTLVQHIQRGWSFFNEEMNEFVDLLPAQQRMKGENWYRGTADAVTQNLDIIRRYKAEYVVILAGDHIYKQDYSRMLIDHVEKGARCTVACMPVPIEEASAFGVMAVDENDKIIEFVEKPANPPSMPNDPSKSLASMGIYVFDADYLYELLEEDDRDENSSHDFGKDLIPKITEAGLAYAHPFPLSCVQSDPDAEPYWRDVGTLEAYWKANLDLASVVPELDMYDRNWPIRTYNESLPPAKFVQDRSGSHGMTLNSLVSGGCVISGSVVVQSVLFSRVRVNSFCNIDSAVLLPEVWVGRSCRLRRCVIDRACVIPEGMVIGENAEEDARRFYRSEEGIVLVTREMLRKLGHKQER
Source text: as §1

[10] = substrate: Nc1ncnc2c1ncn2[C@@H]1O[C@H](COP(=O)(O)OP(=O)(O)OP(=O)(O)O)[C@@H](O)[C@H]1O; assay: as above; format: biochemical, Escherichia coli; conditions: no activator (control), 1 mM Glc1P, 10 mM MgCl2, 50 mM HEPES pH 8.0
Experimental: One was measured in absence (control)

[11] = activator, allosteric, 1.0 mM Glc1P, 1.5 mM ATP, 10 mM MgCl2, pH 8.0, read-out: FBP / A0.5 /

O=P(O)(O)OC[C@H]1OC(O)(COP(=O)(O)O)[C@@H](O)[C@@H]1O (stereo partly shown) [FBP]
EC50 [1, 11]: 1000 ± 130 µM
EC50 [2, 11]: 36 ± 11 µM
EC50 [3, 11]: 320 ± 50 µM
EC50 [4, 11]: 27 ± 9 µM
EC50 [5, 11]: 40 ± 10 µM
EC50 [6, 11]: 67 ± 10 µM
ΔTm at 1000 µM [7]: 13.2 °C

Cc1ncc(COP(=O)(O)O)c(C=O)c1O [PLP]
EC50 ([1]; read-out: PLP / A0.5 /): 4.2 ± 0.6 µM
EC50 ([2]; read-out: PLP / A0.5 /): 0.019 ± 0.005 µM
EC50 [8]: 480 ± 220 nM
EC50 ([3]; read-out: PLP / A0.5 /): 0.21 ± 0.01 µM
EC50 [9]: 220 ± 50 nM
EC50 ([4]; read-out: PLP / A0.5 /): 0.075 ± 0.004 µM
EC50 ([5]; read-out: PLP / A0.5 /): 0.16 ± 0.01 µM
EC50 ([6]; read-out: PLP / A0.5 /): 1.29 ± 0.23 µM

B1: E. coli ADP-glucose pyrophosphorylase (ADP-Glc PPase) (Escherichia coli K-12) (protein)
chain: MVSLEKNDHLMLARQLPLKSVALILAGGRGTRLKDLTNKRAKPAVHFGGKFRIIDFALSNCINSGIRRMGVITQYQSHTLVQHIQRGWSFFNEEMNEFVDLLPAQQRMKGENWYRGTADAVTQNLDIIRRYKAEYVVILAGDHIYKQDYSRMLIDHVEKGARCTVACMPVPIEEASAFGVMAVDENDKIIEFVEKPANPPSMPNDPSKSLASMGIYVFDADYLYELLEEDDRDENSSHDFGKDLIPKITEAGLAYAHPFPLSCVQSDPDAEPYWRDVGTLEAYWKANLDLASVVPELDMYDRNWPIRTYNESLPPAKFVQDRSGSHGMTLNSLVSGGCVISGSVVVQSVLFSRVRVNSFCNIDSAVLLPEVWVGRSCRLRRCVIDRACVIPEGMVIGENAEEDARRFYRSEEGIVLVTREMLRKLGHKQER
K0.5 [10]: 1.75 ± 0.09 mM
